# Source: publication PMC13114161 (Antibiotics, 2026)
# Like-named read-outs stand apart in the source and are kept apart here.
# Legend:
# in vivo = settings: female, CD-1, mouse, 30 mg/kg
# Experimental: The P. aeruginosa strain UNT034-1 (ATCC 27853) was used for infection studies. Female CD-1 mice (6–8 weeks old; 22 ± 2 g) were obtained from Envigo Laboratories (Indianapolis, IN, USA). All procedures were conducted in accordance with protocols approved by the University of North Texas Health Science Center (UNTHSC) Institutional Animal Care and Use Committee (protocol IACUC-2021-0003). Neutropenia was induced by intraperitoneal (i.p.) injection of cyclophosphamide (Cytoxan) at 150 mg/kg on day 4 and 100 mg/kg on day 1 before infection. Mice were anesthetized by i.p. injection of ketamine (40 mg/kg) and xylazine (6 mg/kg) and intranasally inoculated with 0.05 mL of the prepared P. aeruginosa suspension by placing droplets onto the nares and allowing inhalation. Following inoculation, mice were returned to cages for recovery. […] At predetermined time points (0.083, 0.25, 0.5, 1, 2, 4, 8, and 24 h), groups of three mice were euthanized by CO2 asphyxiation. Blood was collected by cardiac puncture into tubes containing EDTA or serum separator gel, centrifuged at 4 °C, and plasma or serum was harvested within 30 min of collection. Bronchoalveolar lavage fluid (BALF) was collected to determine drug concentrations at the site of infection. Briefly, 1.2 mL of sterile 0.9% NaCl was instilled into the lungs via the trachea and gently withdrawn. The epithelial lining fluid (ELF) dilution factor was determined by the blood urea nitrogen (BUN) method. Plasma and BALF samples were stored at −80 °C until analysis. Drug concentrations were quantified by LC-MS/MS using a Surveyor HPLC system coupled to a TSQ Quantum Ultra triple-quadrupole mass spectrometer (Thermo Scientific). Separation was achieved on a Phenomenex Kinetex PFP column (50 × 2.1 mm, 2.6 µm) with a mobile phase gradient of water (0.1% formic acid, A) and acetonitrile (0.1% formic acid, B) at 0.5 mL/min. The gradient proceeded from 10% to 90% B over 4 min, held for 1 min, and re-equilibrated to initial conditions. The column oven was maintained at 30 °C. […] Samples (50 µL plasma or BALF) were spiked with 10 µL of internal standard in methanol, precipitated with 150 µL acetonitrile, vortexed, sonicated for 10 min, and centrifuged at 14,500 rpm for 5 min. A 100 µL aliquot of the supernatant was transferred to autosampler vials, and 10 µL was injected for analysis. Concentration-time data were analyzed using noncompartmental methods (PK Solutions v2.0; Summit Research Services, Montrose, CO, USA). Parameters including area under the concentration-time curve (AUC0-t), maximum concentration (Cmax), time to Cmax (Tmax), apparent volume of distribution (Vd), systemic clearance (CL), and terminal half-life (t½) were calculated. Data are presented as means ± standard deviation (SD) for three animals per time point.
# P. aeruginosa ATCC 27853 [1] = experiment: Neutropenic murine thigh infection model; assay type: in vivo, CD-1 mice; settings: for Mean Log10 CFU (thigh): +24 hr
# Experimental: Female CD-1 mice (6–8 weeks old; 22 ± 2 g) were obtained from Envigo Laboratories, quarantined for at least 3 days, and housed 5 per cage in accordance with the approved IACUC protocol (IACUC-2017-0049). Neutropenia was induced by intraperitoneal (IP) administration of cyclophosphamide (Cytoxan) at 150 mg/kg on day 4 and 100 mg/kg on day 1 prior to infection.
# Mice were infected intramuscularly (IM) in the right thigh with 0.1 mL of bacterial suspension containing approximately 1 × 10^5–10^6 CFU/mL. […] At 2 h or 24 h post-infection, mice were euthanized by CO2 asphyxiation, and thighs were aseptically excised and placed in 2 mL sterile phosphate-buffered saline (PBS) on ice. Tissue homogenization was performed using a Polytron PT10-35 (12 mm aggregate, Kinematica, Malters, Switzerland).
# Plates were incubated overnight at 37 °C, and colonies were enumerated the following day.
# [2] = test system: multidrug-resistant P. aeruginosa clinical isolates from the CDC-FDA; experiment: Levofloxacin MIC potentiation, CDC-FDA isolates; assay type: cell-based, Pseudomonas aeruginosa; settings: for MIC: Pseudomonas aeruginosa; for Levofloxacin MIC fold difference, +EPI / Levofloxacin MIC, +EPI: EPI […] (TXA11114, TXA09155) or 50 μg/mL (MC-04,124, PAβN)
# Experimental: In a comparative study, the levofloxacin-potentiating activity of TXA11114 was evaluated alongside the well-characterized EPIs PAβN and MC-04,124 using P. aeruginosa clinical isolates obtained from the CDC and FDA Antimicrobial Resistance Isolate Bank and the Walter Reed Army Institute of Research (WRAIR). […] While PAβN has been widely studied in laboratory strains, its activity against the CDC/FDA P. aeruginosa panel has been reported only sparingly, limiting direct cross-study comparisons.
# (§1) MIC assays for potentiation of antimicrobial activity against P. aeruginosa were performed as described previously.
# P. aeruginosa ATCC 27853 [3] = experiment: MIC and levofloxacin potentiation (broth microdilution); assay type: cell-based, Pseudomonas aeruginosa; settings: for MIC: Pseudomonas aeruginosa, ATCC27853
# Experimental: Once synthesized, the three fluorinated EPI analogs (TXA11114, TXA11164 and TXA12027) were first assayed for their antibacterial activities against P. aeruginosa ATCC 27853. They had MICs of 100, >200 and 100 µg/mL, respectively (Table 1). […] Particularly, the inactivity of TXA11164 was surprising as the pKa values of both the amines are similar to that in TXA11114.
# as §1
# [4] = levofloxacin 10 mg/kg SC QID, alone or with TXA11114 30 mg/kg IV QID
compound,measurement,setting,value
"C[C@H]1COc2c(N3CCN(C)CC3)c(F)cc3c(=O)c(C(=O)O)cn1c23 [Levofloxacin, levofloxacin]",Cmax,in vivo; BALF Cmax,2000 ng/mL
same,Tmax,in vivo; BALF Tmax,15 min
same,AUC(0-t),in vivo; Plasma AUC 0-t,32900 ng·h/mL
same,Cmax,in vivo; Plasma Cmax,24100 ng/mL
same,half-life,in vivo; Plasma Half-life,88.8 min
same,Tmax,in vivo; Plasma Tmax,15 min
same,Vd,in vivo; Plasma Vd,1.89 L/kg
same,AUC(0-t),"in vivo; sc, BALF AUC 0-t",3900 ng·h/mL
same,Mean Log10 CFU (thigh),P. aeruginosa ATCC 27853 [1]; [4],7.41 log10 CFU
same,Mean Log10 CFU (thigh),"P. aeruginosa ATCC 27853 [1]; levofloxacin 15 mg/kg SC QID, alone or with TXA11114 30 mg/kg IV QID",5.97 log10 CFU
same,Mean Log10 CFU (thigh),"P. aeruginosa ATCC 27853 [1]; levofloxacin 20 mg/kg SC QID, alone or with TXA11114 30 mg/kg IV QID",4.47 log10 CFU
same,"Mean Log10 CFU Change vs +2 hr Control, Δlog10 (treatment-baseline), thigh",P. aeruginosa ATCC 27853 [1]; [4],1.33 log10 CFU
same,MIC,"[2]; read-out: Levofloxacin MIC, No EPI, AR-0229",64 µg/mL
same,MIC,"[2]; read-out: Levofloxacin MIC, No EPI, AR-0232",8 µg/mL
same,MIC,"[2]; read-out: Levofloxacin MIC, No EPI, AR-0233",4 µg/mL
same,MIC,"[2]; read-out: Levofloxacin MIC, No EPI, AR-0234",8 µg/mL
same,MIC,"[2]; read-out: Levofloxacin MIC, No EPI, AR-0239",32 µg/mL
same,MIC,"[2]; read-out: Levofloxacin MIC, No EPI, AR-0242",8 µg/mL
same,MIC,"[2]; read-out: Levofloxacin MIC, No EPI, AR-0244",64 µg/mL
same,MIC,"[2]; read-out: Levofloxacin MIC, No EPI, AR-0246",64 µg/mL
same,MIC,"[2]; read-out: Levofloxacin MIC, No EPI, AR-0248",16 µg/mL
same,MIC,"[2]; read-out: Levofloxacin MIC, No EPI, AR-0249",64 µg/mL
same,MIC,"[2]; read-out: Levofloxacin MIC, No EPI, AR-0252",32 µg/mL
same,MIC,"[2]; read-out: Levofloxacin MIC, No EPI, AR-0253",2 µg/mL
same,MIC,"[2]; read-out: Levofloxacin MIC, No EPI, AR-0264",64 µg/mL
same,MIC,"P. aeruginosa ATCC 27853 [3]; ATCC 27853 parent strain (Table S1), read-out: MIC",1 µg/mL
NC[C@@H]1CN[C@H](CNC(=O)c2cc3ccc(-c4ccc(F)cc4)cc3[nH]2)C1 [TXA09155],Improvement of levofloxacin efficacy in murine thigh or lung infection models,P. aeruginosa ATCC 27853 [1]; thigh or lung infection models,neither TXA01182 nor TXA09155 improved levofloxacin efficacy
same,"Levofloxacin MIC fold difference, +EPI",[2]; AR-0229,32 fold
same,"Levofloxacin MIC, +EPI",[2]; AR-0229,2 µg/mL
same,"Levofloxacin MIC fold difference, +EPI",[2]; AR-0232,16 fold
same,"Levofloxacin MIC, +EPI",[2]; AR-0232,0.5 µg/mL
same,"Levofloxacin MIC fold difference, +EPI",[2]; AR-0233,32 fold
same,"Levofloxacin MIC, +EPI",[2]; AR-0233,0.125 µg/mL
same,"Levofloxacin MIC fold difference, +EPI",[2]; AR-0234,16 fold
same,"Levofloxacin MIC, +EPI",[2]; AR-0234,0.5 µg/mL
same,"Levofloxacin MIC fold difference, +EPI",[2]; AR-0239,16 fold
same,"Levofloxacin MIC, +EPI",[2]; AR-0239,4 µg/mL
same,"Levofloxacin MIC, +EPI",[2]; AR-0242,1 µg/mL
same,"Levofloxacin MIC, +EPI",[2]; AR-0244,2 µg/mL
same,"Levofloxacin MIC fold difference, +EPI",[2]; AR-0246,"8, (8) fold"
same,"Levofloxacin MIC, +EPI",[2]; AR-0246,"8, (8) μg/mL"
same,"Levofloxacin MIC fold difference, +EPI",[2]; AR-0248,32 fold
same,"Levofloxacin MIC, +EPI",[2]; AR-0248,0.5 µg/mL
same,"Levofloxacin MIC fold difference, +EPI",[2]; AR-0249,32 fold
same,"Levofloxacin MIC, +EPI",[2]; AR-0249,2 µg/mL
same,"Levofloxacin MIC fold difference, +EPI",[2]; AR-0252,64 fold
same,"Levofloxacin MIC, +EPI",[2]; AR-0252,0.5 µg/mL
same,"Levofloxacin MIC fold difference, +EPI",[2]; AR-0253,64 fold
same,"Levofloxacin MIC, +EPI",[2]; AR-0253,0.031 µg/mL
same,"Levofloxacin MIC, +EPI",[2]; AR-0264,1 µg/mL
same,Fold MIC reduction [LVX/EPI-LVX],"P. aeruginosa ATCC 27853 [3]; EPI at […], ATCC 27853",16 fold
same,MIC,"P. aeruginosa ATCC 27853 [3]; EPI alone, ATCC 27853, read-out: EPI MIC",50 µg/mL
same,LVX MIC (+EPI),"P. aeruginosa ATCC 27853 [3]; levofloxacin MIC with EPI at […], ATCC 27853",0.063 µg/mL
